In brackets after ≈: the same amount, converted by molar mass. Read-outs that look alike come from different tables or passages of the source. Where a SMILES comes first, the peptide text is derived from it.

Consider four molecules from patent US20040033972A1, “Treatment of mycobacterium tuberculosis with antisense polynucleotides” (priority 2002, published 2004).

For one assay, the system named is M. tuberculosis. The note with it: cited from earlier work.
The target of assay [1] is extracellular glutamine synthetase (Mycobacterium tuberculosis, UniProt P9WN39). The note with it: 20 μM; cited from earlier work.
Sequence of extracellular glutamine synthetase (P9WN39 2-478 limits assumed): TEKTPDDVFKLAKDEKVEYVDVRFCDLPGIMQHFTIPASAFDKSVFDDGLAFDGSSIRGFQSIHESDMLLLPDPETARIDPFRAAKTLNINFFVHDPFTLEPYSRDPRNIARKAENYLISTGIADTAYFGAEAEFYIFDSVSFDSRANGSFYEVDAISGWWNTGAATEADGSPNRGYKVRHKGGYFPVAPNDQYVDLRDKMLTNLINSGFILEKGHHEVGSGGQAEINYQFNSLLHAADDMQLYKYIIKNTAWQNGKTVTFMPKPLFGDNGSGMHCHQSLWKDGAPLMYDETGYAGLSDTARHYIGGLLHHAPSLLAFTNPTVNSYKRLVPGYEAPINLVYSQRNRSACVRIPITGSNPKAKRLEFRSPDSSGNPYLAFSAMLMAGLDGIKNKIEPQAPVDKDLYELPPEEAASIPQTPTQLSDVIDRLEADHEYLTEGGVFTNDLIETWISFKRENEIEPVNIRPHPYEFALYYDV
Assay [2] relates to poly-L-glutamate/glutamine cell wall structure. The settings on record: 20 μM; cited from earlier work.
Assay [3] relates to M. tuberculosis Erdman. Nature of the assay: Growth of M. tuberculosis Erdman broth cultures (colony forming units). It counts as cell-based.
Assay [4] relates to M. tuberculosis Erdman. Nature of the assay: microbe, parasite or virus in culture. The settings on record: Mycobacterium tuberculosis.
The test system of assay [5] is M. smegmatis 1-2c. Nature of the assay: microbe, parasite or virus in culture. The settings on record: Mycolicibacterium smegmatis, 12C.
Assay [6] deals with M. tuberculosis Erdman.
Assay [7] has as its system M. smegmatis 1-2c.

For the molecule `CS(=N)(=O)CC[C@H](N)C(=O)O` (stereo partly drawn) [L-methionine-S-sulfoximine], in the assay on M. tuberculosis (2 μM), the “inhibition of bacterial growth” value is given as 1.5-2 log units. Also, in the assay with M. tuberculosis (20 μM), the “reduction of bacterial growth” value is not below 2.5 log units. Further, the “reduction of extracellular glutamine synthetase activity” value in assay [1] is recorded as 80%. The “reduction of the amount of the poly-L-glutamate/glutamine cell wall structure” value in assay [2] is 93%.

As to `NCC[C@H](O)C(=O)N[C@@H]1C[C@H](N)[C@@H](O[C@H]2O[C@H](CN)[C@@H](O)[C@H](O)[C@H]2O)[C@H](O)[C@H]1O[C@H]1O[C@H](CO)[C@@H](O)[C@H](N)[C@H]1O` [amikacin], the entries for the “antibacterial effect of free amikacin” value in the assay on M. tuberculosis Erdman [3] (1 μM) and in the assay with M. tuberculosis Erdman [3] (5.8 μg per ml (10 μM)) were “bacteriostatic” and “strongly bactericidal”, respectively.

As for `CC[C@@H](CO)NCCN[C@@H](CC)CO` [ethambutol], the MIC with M. tuberculosis Erdman [4] is approximately 5 µg/mL (≈ 24.5 µM); with M. smegmatis 1-2c [5], approximately 0.01 µg/mL (≈ 0.0489 µM).

With `CC(C)C[C@@H]1NC(=O)[C@@H](Cc2ccccc2)NC(=O)[C@H](CCN)NC(=O)[C@@H](NC(=O)[C@H](CCN)NC(=O)[C@@H](N)[C@@H](C)O)CCNC(=O)[C@H]([C@@H](C)O)NC(=O)[C@H](CCN)NC(=O)[C@H](CCN)NC1=O` [polymyxin B nonapeptide] (HELM PEPTIDE1{T.[Dab].[Dab].[Dab].[dF].L.[Dab].[Dab].T}$PEPTIDE1,PEPTIDE1,3:R3-9:R2$$$V2.0; N-terminus assumed), the MIC in the assay on M. tuberculosis Erdman [6] and against M. smegmatis 1-2c [7] was approximately 5 µg/mL (≈ 5.19 µM) each time.
